Assay results reported in US20120035155A1, “INDOLE-2-CARBOXAMIDE DEIVATIVE” (MSD K.K., priority 2009, published 2012).

target: T1, human QRFP receptor (GPR103) (Homo sapiens, UniProt Q96P65); test: QRFP43-Binding Inhibitory Test; settings: inhibition of specific [125I] QRFP43 binding; membrane sample of CHO-K1 NFAT β-Lactamase cells expressing GPR103; 25° C., 1 hour
T1 construct: expressed in transfected cells; host or cells: CHO-K1 NFAT β-Lactamase (Aurora); membrane sample
T1 sequence (Q96P65 1-431): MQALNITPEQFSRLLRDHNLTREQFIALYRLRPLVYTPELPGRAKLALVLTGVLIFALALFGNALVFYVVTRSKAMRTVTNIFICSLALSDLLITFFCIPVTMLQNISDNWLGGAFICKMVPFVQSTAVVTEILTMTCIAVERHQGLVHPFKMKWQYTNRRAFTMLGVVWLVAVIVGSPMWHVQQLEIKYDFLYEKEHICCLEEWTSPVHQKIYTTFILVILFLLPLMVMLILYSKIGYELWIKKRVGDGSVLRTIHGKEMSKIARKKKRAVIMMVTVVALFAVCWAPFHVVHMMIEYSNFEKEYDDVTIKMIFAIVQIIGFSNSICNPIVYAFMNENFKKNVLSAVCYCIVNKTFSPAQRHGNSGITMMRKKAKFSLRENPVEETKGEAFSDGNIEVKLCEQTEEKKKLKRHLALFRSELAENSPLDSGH
Text: A cDNA sequence [Accession No. NM_198179] coding for a human QRFP receptor (GPR103) was cloned in an expression vector pEF1V5-H isB (by Invitrogen). The resulting expression vector was transfected in a host cell CHO-K1 NFAT β-Lactamase (by Aurora), according to a cationic lipid process [see Proceedings of the National Academy of Sciences of the United States of America, Vol. 84, p. 7413, 1987], thereby producing a QRFP receptor (GPR103).
A membrane sample prepared from the cells having expressed a QRFP receptor (GPR103) was incubated in an assay buffer (50 mM Tris-HCl, 1 mM EDTA and 0.1% BSA, pH 7.4) along with a test compound and 20,000 cpm [^125I] QRFP43 (by Perkin Elmer) therein, at 25° C. for 1 hour, and then filtered through a glass filter GF/C. After washed with 50 mM Tris-HCl (containing 2 mM EDTA, 10 mM MgCl2 and 0.04% Tween-20) buffer (pH 7.4), the radioactivity on the glass filter was determined. The non-specific binding was determined in the presence of 1 μM peptide QRFP43, and the 50% inhibitory concentration (IC50) of the test compound to the specific [^125I] QRFP43 binding was computed [see Endocrinology, Vol. 131, p. 2090, 1992].

SMILES | IC50 [nM]
CCN1CCc2cc(CNC(=O)c3cc4ccccc4n3C)ccc2C1 [Example 2, N-(2-ethyl-1,2,3,4-tetrahydroisoquinolin-6-ylmethyl)-1-methyl-1H-indole-2-carboxamide] | 49
Cn1c(C(=O)NCc2ccc3c(c2)CCN(C2CCCC2)C3)cc2ccccc21 [Example 3, N-(2-cyclopentyl-1,2,3,4-tetrahydroisoquinolin-6-ylmethyl)-1-methyl-1H-indole-2-carboxamide] | 45
CN(C)Cc1ccc2c(c1)CCN(C(=O)c1cc3ccccc3n1C)C2 [Example 4, [6-Dimethylaminomethyl-3,4-dihydro-2(1H)isoquinolin-2-yl](1-methyl-1H-indol-2-yl)methanone] | 5.8
Cn1c(C(=O)N2CCc3cc(CN4CCC4)ccc3C2)cc2ccccc21 [Example 6, [6-(Azetidin-1-ylmethyl)-3,4-dihydro-2(1H)isoquinolin-2-yl](1-methyl-1H-indol-2-yl)methanone] | 43

The remaining lines, values ahead:

IC50 [nM] | SMILES
61 | Cn1c(C(=O)NCc2ccc3c(c2)CCNC3)cc2ccccc21 [Example 1, 1-Methyl-N-(1,2,3,4-tetrahydroisoquinolin-6-ylmethyl)-1H-indole-2-carboxamide]
19 | CNCc1ccc2c(c1)CCN(C(=O)c1cc3ccccc3n1C)C2 [Example 5, [6-Methylaminomethyl-3,4-dihydro-2(1H)isoquinolin-2-yl](1-methyl-1H-indol-2-yl)methanone]
6.1 | CN(C)Cc1ccc2c(c1)CCN(C(=O)c1cc3cc(Cl)ccc3n1C)C2 [Example 7, [6-Dimethylaminomethyl-3,4-dihydro-2(1H)isoquinolin-2-yl](5-chloro-1-methyl-1H-indol-2-yl)methanone]
25 | CNCc1ccc2c(c1)CCN(C(=O)c1cc3cc(Cl)ccc3n1C)C2 [Example 8, [6-methylaminomethyl-3,4-dihydro-2(1H)isoquinolin-2-yl](5-chloro-1-methyl-1H-indol-2-yl)methanone]
